The subject of experiment [1] is HT-29 (colon adenocarcinoma). Put plainly: Cell growth inhibition, MTT assay, HT-29, without or with verapamil. Type of experiment: cell-based, human.
Another experiment concerns U87 MG (glioblastoma). Put plainly: Cell growth inhibition, MTT assay, U87 MG. Particulars: Homo sapiens, U-87 MG. In kind it is cell-based. In general terms: Tetrazolium assays rely on reduction of a dye to a coloured formazan, in cell work by metabolically active cells.
The subject of experiment [2] is HCT8 (colorectal carcinoma). Put plainly: Cell growth inhibition, MTT assay, HCT8. In kind it is cell-based. Particulars: Homo sapiens.
Experiment [3] concerns MCF7 (breast adenocarcinoma). Put plainly: Cell growth inhibition, MTT assay, MCF7. In kind it is cell-based. Particulars: Homo sapiens.
Where [4] appears, read: Homo sapiens, HT-29, 72 h after drug exposure.
Where [5] appears, read: Homo sapiens, HT-29, mean ± SD, Table S1.
Where [6] appears, read: mean ± SD, Table S1, in the presence of verapamil (10 µM).
The mark [7] stands for this setting: HCT-8, 72 h after drug exposure.

Structures are written as SMILES.

In general, IC50 refers to the concentration that inhibits the measured activity by half. In the case of `CSc1cc(-c2nnnn2-c2ccc3c(ccn3C)c2)cc(Cl)n1` [Compound 10, 5-(5-(2-chloro-6-(methylsulfanyl)pyridin-4-yl)-1H-tetrazol-1-yl)-1-methyl-1H-indole], the IC50 came to 59 nM in experiment [1] (setting [4]); 59.4 ± 0.5 nM in experiment [1] (setting [5]); 61.4 ± 0.4 nM in experiment [1] (setting [6]); 22 nM in the experiment with U87 MG (glioblastoma) (72 h after drug exposure); 22.2 ± 0.1 nM in the experiment with U87 MG (glioblastoma) (mean ± SD, Table S1); 40 nM in experiment [2] (setting [7]). The IC50 stood at 38 nM in experiment [3] (72 h after drug exposure) and 38.4 ± 0.4 nM in experiment [3] (mean ± SD, Table S1).
On to `Cn1cc(C=O)c2cc(-n3nnnc3-c3cc(Cl)nc(Cl)c3)ccc21` [Compound 12, 5-(5-(2,6-dichloropyridin-4-yl)-1H-tetrazol-1-yl)-1-methyl-1H-indole-3-carbaldehyde], for which the IC50 in experiment [1] (setting [4]) was found to be 51 nM; in experiment [1] (setting [5]) it was 51.3 ± 0.3 nM; in experiment [1] (setting [6]), 56.5 ± 0.5 nM; in the experiment with U87 MG (glioblastoma) (72 h after drug exposure), 17 nM; with U87 MG (glioblastoma) (mean ± SD, Table S1) it was 17.1 ± 0.1 nM; in experiment [2] (setting [7]), 40 nM. Besides, the IC50 in experiment [2] (HCT-8, mean ± SD, Table S1) was 40.1 ± 0.3 nM; in experiment [3] (72 h after drug exposure) it was 37 nM; in experiment [3] (mean ± SD, Table S1) it was 37.3 ± 0.2 nM.
For the compound `CSc1cc(-c2nnnn2-c2ccc3c(c2)c(C=O)cn3C)cc(Cl)n1` [Compound 14, 5-(5-(2-chloro-6-(methylsulfanyl)pyridin-4-yl)-1H-tetrazol-1-yl)-1-methyl-1H-indole-3-carbaldehyde], the IC50 in experiment [1] (setting [4]) came to 31 nM; in experiment [1] (setting [5]) it was 31.1 ± 0.3 nM; in experiment [1] (setting [6]) it was 33.1 ± 0.4 nM; with U87 MG (glioblastoma) (72 h after drug exposure), 12 nM; in experiment [2] (setting [7]) it was 29 nM; in experiment [2] (HCT-8, mean ± SD, Table S1) it was 29.4 ± 0.2 nM. Moreover, the IC50 was 26 nM in experiment [3] (72 h after drug exposure) and 26.2 ± 0.1 nM in experiment [3] (mean ± SD, Table S1).

These data come from PMC10342533, “Novel Tetrazole Derivatives Targeting Tubulin Endowed with Antiproliferative Activity against Glioblastoma Cells” (International Journal of Molecular Sciences, 2023).
